Holding throughout (type): cell-based
The subject of test [1] is Burkholderia cepacia (DSM 7288). Nature of the test: MIC study on agar, bacterial strain. The conditions noted are these: DSM7288, ppm of antimicrobial active (Hinokitiol), Caso-Agar pH 7.3, 2 to 3 weeks at 20 to 25° C. The protocol:
(§1) The individual concentrations of the test-product were weighed into sterile Erlenmeyer flasks and mixed with 100 ml of an appropriate growth media at a maximum temperature of about 40 to 50° C. Equal amounts of mixtures were poured into four Petri dishes. After cooling, the Petri dishes were inoculated with the respective standard strains. During the experiment, the Petri dishes were kept for 2 to 3 weeks at room temperature of about 20 to 25° C. in the dark. The following two different types of culture media were employed for the present studies: • i. Bacteria-Agar: merchantable Caso—Agar pH-Value: 7.3±0.2 • ii. Fungi/Yeast-Agar:merchantable Malt extract—Agar (3%) pH-Value: 5.6±0.2
(§2) After 2nd and 3rd weeks macroscopic evaluations were performed, the ratings are as follows:
(§3) The formulation under examination is considered to be efficient if the following conditions are duly fulfilled i.e. (i) after 2-3 weeks no growth of the tested culture is visible; (ii) with rising concentration of the tested formulation, the germ growth should macroscopically be reduced until it is not visible any more.

In test [2] the test system is Escherichia coli (DSM 1576). Nature of the test: MIC study on agar, bacterial strain. The conditions noted are these: for reduction of MIC level of hinokitiol: against Escherichia coli. The protocol: as §1, §2, §3
The test system of test [3] is Pseudomonas aeruginosa (DSM 1128). Kind of test: MIC study on agar, bacterial strain. The conditions noted are these: DSM1128, ppm of antimicrobial active (Hinokitiol), Caso-Agar pH 7.3, 2 to 3 weeks at 20 to 25° C. As for the experimental part: as §1, §2, §3
Test [4] deals with Staphylococcus aureus (DSM 799). Kind of test: MIC study on agar, bacterial strain. As for the experimental part: as §1, §2, §3
The test system of test [5] is Aspergillus brasiliensis (DSM 1988). Nature of the test: MIC study on agar, fungal strain. The conditions noted are these: DSM1988, ppm of antimicrobial active (Hinokitiol), Malt extract-Agar (3%) pH 5.6, 2 to 3 weeks at 20 to 25° C. As for the experimental part: as §1, §2, §3
In test [6] the test system is Trichoderma viride (DSM 63064). Nature of the test: MIC study on agar, fungal strain. The conditions noted are these: DSM63064, ppm of antimicrobial active (Hinokitiol), Malt extract-Agar (3%) pH 5.6, 2 to 3 weeks at 20 to 25° C. The protocol: as §1, §2, §3

Values after ≈ are worked out from the molar mass of the structure shown.

Regarding `CC(C)c1cccc(O)c(=O)c1` [Hinokitiol, 2-Hydroxy-6-propan-2-ylcyclohepta-2,4,6-trien-1-one], the MIC in test [1] is 500 µg/mL (≈ 3040 µM); in test [2] (DSM1576, Escherichia coli, ppm of antimicrobial active (Hinokitiol), Caso-Agar pH 7.3, 2 to 3 weeks at 20 to 25° C.), 100 µg/mL (≈ 609 µM); in test [3] it was 500 µg/mL (≈ 3040 µM); in test [4] (DSM799, Staphylococcus aureus, ppm of antimicrobial active (Hinokitiol), Caso-Agar pH 7.3, 2 to 3 weeks at 20 to 25° C.) it was 100 µg/mL (≈ 609 µM); in test [5], 100 µg/mL (≈ 609 µM); in test [6] it was 100 µg/mL (≈ 609 µM). The “reduction of MIC level of hinokitiol” value in test [2] (in presence of 1,3-propanediol (Zemea)) turned out to be 50%; in test [2] (in presence of sorbitan caprylate (Velsan SC)), 50%; in test [4] (in presence of 1,3-propanediol (Zemea), against Staphylococcus aureus), 50%.
